Experimental data as given in US5990295A (priority 1998, dated 1999).

System: ω-conotoxin GVIA binding site on brain membrane preparations
Parameters: species or system frogs, chicks and rats

ω-conotoxin GVIA
displacement of 125I-GVIA: approximately 90% | displacement of 125I-GVIA label: approximately 98%
